Measured values from article PMC11232109, “Synthesis, anticancer evaluation of novel hybrid pyrazole-based chalcones, molecular docking, DNA fragmentation, and gene expression: in vitro studies” (RSC Advances, 2024).

System: BJ1 (normal skin fibroblasts)
Assay: MTT assay, normal cell line BJ1
Assay type: cell-based
Settings: Skin fibroblast, 48 hours
Experimental: The percentage of the cell viability treated with the newly synthesized compounds was evaluated using MTT assay (3-(4,5-dimethylthiazol-2-yl)-2,5-diphenyl tetrazolium bromide). All the subsequent steps were done in a sterile Laminar flow class II biosafety cabinet (Baker, SG406INT, Sanford, ME, USA). DMEM was used as a suspension medium for breast cancer (MCF7), prostate cancer (PC3), and pancreatic cancer (PACA2), while normal cell line (BJ1) was suspended in DMEM-F12 medium, a 1% antibiotic-antimycotic mixture (10 000 U ml^−1 potassium penicillin, 10 000 μg ml^−1 streptomycin sulfate, and 25 μg ml^−1 amphotericin B), and 1% L-glutamine at 37 °C under 5% CO2.
Cells were cultured for 10 days and then seeded at a concentration of 10 × 10^4 cells per well in fresh complete growth medium in 96-well microtiter plastic plates at 37 °C for 24 hours under 5% CO2 using a water-jacketed carbon dioxide incubator (Sheldon, TC2323). Media were aspirated, serum-free fresh medium was added, and cells were incubated either alone (negative control) or with different concentrations of the synthesized chalcone derivatives to a final concentration of (100–50–25–12.5–6.25–3.125–0.78 and 1.56 μg ml^−1). After incubation for 48 hours, the medium was aspirated and 40 μl of MTT salt ([…]) was added to each well and incubated for another four hours at 37 °C under 5% CO2. To stop the reaction and dissolve the formed crystals, 200 μl of 10% sodium dodecyl sulfate (SDS) in deionized water was added to each well and incubated overnight at 37 °C.
The absorbance was then measured at 595 nm and a reference wavelength of 620 nm using a microplate multi-well reader (Bio-Rad Laboratories Inc., model 3350). Statistical significance was tested between the samples and the negative control (cells with vehicle) using an independent t-test using the SPSS 11 program. DMSO was the vehicle used for the dissolution of the synthesized chalcones, and its final concentration on the cells was less than 0.2%. The percentage of change in viability was calculated according to the formula: ((reading of extract/reading of negative control) − 1) × 100. A Probit analysis was carried out for the determination of IC50 using the SPSS 11 program.

COc1cccc2c1C(=O)c1c(O)c3c(c(O)c1C2=O)C[C@@](O)(C(=O)CO)C[C@@H]3O[C@H]1C[C@H](N)[C@H](O)[C@H](C)O1 [Doxorubicin, reference compound]
IC50: 13.6 ± 0.28 µM
